Assay results taken from US8470803B2, “Boron-containing small molecules” (Anacor Pharmaceuticals, Inc., priority 2008, dated 2013).

What was measured:
TNF-α = assay: Cytokine assay: TNF-α release, LPS-induced PBMC; type: cell-based; conditions: human PBMC, 1 μg/mL LPS, supernatant at 24 hours
Protocol: (§1) Frozen human peripheral blood mononucleocytes (PBMC) were thawed and centrifuged. Cryopreservation media was aspirated off of the cell pellet, and the cells were resuspended in fresh culture media (CM) comprising RPMI 1640 and 10% FBS in 96 well plates. Test article was dissolved in DMSO to form a 10 mM sample (DMSO, 100%). The 10 mM samples were diluted to 100 μM in CM (DMSO, 1%), then further diluted to 10, 1, 0.1, 0.01 μM in 200 μL of CM (n=3). Inducer (1 μg/mL) LPS for TNF-α or 20 ug/mL PHA for IFNγ, IL-2, IL-4, IL-5 and IL-10. IL-23 was induced with 100 ng/ml IFN-g+[…], using THP-1 cells. Vehicle (1% DMSO) was used as a control for this experiment. Vehicle without inducer was used as a negative control. Cells were incubated at 37° C., 5% CO2. Supernatants were extracted at 24 hours (for TNF-α, IL-2 and IFNγ) and 48 hours (for IL-4, IL-5, IL-10 and IL-23), and stored at −20° C. Supernatants were thawed and assayed for cytokine expression using the fluorochrome-labeled cytokine-specific beads and a BD FACSArray™. IL-23 was assayed using a commercial ELISA kit (R&D Systems).

IL-2 = assay: Cytokine assay: IL-2 release, PHA-induced PBMC; type: cell-based; conditions: human PBMC, 20 ug/mL PHA, 24 hours
Protocol: as §1

IL-γ = assay: Cytokine assay: IFNγ (IL-γ [sic]) release, PHA-induced PBMC; type: cell-based; conditions: human PBMC, 20 ug/mL PHA, 24 hours
Protocol: as §1

IL-4 = assay: Cytokine assay: IL-4 release, PHA-induced PBMC; type: cell-based; conditions: human PBMC, 20 ug/mL PHA, 48 hours
Protocol: as §1

IL-5 = assay: Cytokine assay: IL-5 release, PHA-induced PBMC; type: cell-based; conditions: human PBMC, 20 ug/mL PHA, 48 hours
Protocol: as §1

IL-10 = assay: Cytokine assay: IL-10 release, PHA-induced PBMC; type: cell-based; conditions: human PBMC, 20 ug/mL PHA, 48 hours
Protocol: as §1

[1] = test system: T1, PDE4 partially purified from human U-937 myeloid leukemia cells; assay: PDE4 assay ([3H]cAMP hydrolysis); type: biochemical; conditions: PDE4 from U-937 cells, 1 mM cAMP, pH 7.5, 20 minutes at 25° C.
T1 construct: PDE4 partially purified from human U-937 myeloid leukemia cells was used
Protocol: PDE4 partially purified from human U-937 myeloid leukemia cells was used. Test article and/or vehicle was incubated with 0.2 mg enzyme and 1 mM cAMP containing 0.01 mM [3H]cAMP in Tris buffer pH 7.5 for 20 minutes at 25° C. The reaction was terminated by boiling for 2 minutes and the resulting AMP is converted to adenosine by addition of 10 mg/ml snake venom nucleotidase and further incubation at 37° C. for 10 minutes. Unhydrolyzed cAMP is bound to AG1-X2 resin, and remaining [3H]Adenosine in the aqueous phase is quantitated by scintillation counting.

IL-23 = assay: Cytokine assay: IL-23 release, IFN-g + LPS induced THP-1 cells; type: cell-based; conditions: Homo sapiens, 100 ng/ml IFN-g + 1 mg/ml LPS, 48 hours, ELISA
Protocol: as §1

K-ATP channel = K-ATP channel (SUR) binding; cited from earlier work

In the case of `CC(C)(C)OC(=O)N(c1ccc(C#N)cc1)c1ccc2c(c1)COB2O` [C1, 5-[N-tert-Butoxycarbonyl-(4-cyanophenylamino)]-1,3-dihydro-1-hydroxybenzoxaborole], the IC50 (TNF-α) is reported as 1100 nM, the IC50 (IL-2) is reported as 960 nM and the IC50 (IL-γ) is reported as 620 nM. It also gave an IC50 (IL-4) of over 10000 nM, an IC50 (IL-5) of 2420 nM and an IC50 (IL-10) of 5590 nM. The IC50 [1] was 2750 nM.
`COc1nc(Nc2ccc3c(c2)COB3O)ccc1C#N` [C5, 6-(1-hydroxy-1,3-dihydrobenzo[c][1,2]oxaborol-5-ylamino)-2-methoxynicotinonitrile] gave an IC50 (TNF-α) of 260 nM, an IC50 (IL-23) of 2740 nM and an IC50 (IL-2) of 210 nM. It also gave an IC50 (IL-γ) of 300 nM, an IC50 (IL-4) of 23000 nM and an IC50 (IL-5) of 700 nM. For the same compound, the IC50 (IL-10) was 3700 nM and the IC50 [1] was 340 nM.
For `CC1=NS(=O)(=O)c2cc(Cl)ccc2N1` [diazoxide], the pKi (K-ATP channel) is given as 3.8.
Work on `COc1nc(N(C(=O)OC(C)(C)C)c2ccc3c(c2)COB3O)ccc1C#N` [C4, tert-Butyl 5-cyano-6-methoxypyridin-2-yl(1-hydroxy-1,3-dihydrobenzo[c][1,2]oxaborol-5-yl)carbamate] yielded an IC50 (TNF-α) of 360 nM, an IC50 (IL-23) of 5770 nM and an IC50 (IL-2) of 220 nM. The IC50 (IL-γ) was 370 nM, the IC50 (IL-4) was 33000 nM and the IC50 (IL-5) was 400 nM. It also gave an IC50 (IL-10) of 6000 nM and an IC50 [1] of 180 nM.
Compound `N#Cc1ccc(Nc2ccc3c(c2)COB3O)cc1` [C2, 5-(4-Cyanophenylamino)-1,3-dihydro-1-hydroxybenzoxaborole] has an IC50 (TNF-α) of 1080 nM, an IC50 (IL-23) of 7350 nM and an IC50 (IL-2) of 130 nM. For the same compound, the IC50 (IL-γ) was 1510 nM, the IC50 (IL-4) was over 10000 nM and the IC50 (IL-5) was 6830 nM. For the same compound, the IC50 (IL-10) was over 10000 nM and the IC50 [1] was 414 nM.
`CN(c1ccc(C#N)cc1)c1ccc2c(c1)COB2O` [C3, 5-[N-(4-Cyanophenyl)-N-methylamino]-1,3-dihydro-1-hydroxybenzoxaborole] gave an IC50 (TNF-α) of 1300 nM, an IC50 (IL-2) of 880 nM and an IC50 (IL-γ) of 2000 nM. For the same compound, the IC50 (IL-4) was over 10000 nM, the IC50 (IL-5) was 3500 nM and the IC50 (IL-10) was 3100 nM. It also gave an IC50 [1] of 387 nM.
